# The source made the active and inactive calls. How the source made its calls: active means viability on the fitted dose curve at most 10% of control; inactive means the rest.
# System: PDC KRAS tumor spheroids with HUVEC/MSC, viability
# Test: Anticancer human tumor 349418-098-R-PDC patient-derived lung adenocarcinoma cell line growth inhibition [KRAS2]
# Settings: for IC50: curve of first compound; for viability, T/C: stronger effect = lower value
# How it was run: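 Combination screen of spheroid viability in tumor-cell co-cultures with endothelial (HUVEC) and mesenchymal stem cell stroma. Each agent was tested in half-log dilutions, topping at clinical Cmax or at 10 microM without a known Cmax.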
# [1] = second compound 0.1 µM, first compound 0.0316 µM
# [2] = second compound 0.1 µM, first compound 0.1 µM
# [3] = second compound 0.1 µM, first compound 0.316 µM
# [4] = second compound 0.1 µM, first compound 1 µM
# [5] = second compound 0.1 µM, first compound 3.16 µM
# [6] = second compound 0.1 µM, first compound 10 µM
# [7] = second compound 0.316 µM, first compound 0.0316 µM
# [8] = second compound 0.316 µM, first compound 0.1 µM
# [9] = second compound 0.316 µM, first compound 0.316 µM
# [10] = second compound 0.316 µM, first compound 1 µM
# [11] = second compound 0.316 µM, first compound 3.16 µM
# [12] = second compound 0.316 µM, first compound 10 µM
# [13] = second compound 1 µM, first compound 0.0316 µM
# [14] = second compound 1 µM, first compound 0.1 µM
# [15] = second compound 1 µM, first compound 0.316 µM
# [16] = second compound 1 µM, first compound 1 µM
# [17] = second compound 1 µM, first compound 3.16 µM
# [18] = second compound 1 µM, first compound 10 µM
# [19] = second compound 3.16 µM, first compound 0.0316 µM
# [20] = second compound 3.16 µM, first compound 0.1 µM
# [21] = second compound 3.16 µM, first compound 0.316 µM
# [22] = second compound 3.16 µM, first compound 1 µM
# [23] = second compound 3.16 µM, first compound 3.16 µM
# [24] = second compound 3.16 µM, first compound 10 µM
# [25] = second compound 10 µM, first compound 0.0316 µM
# [26] = second compound 10 µM, first compound 0.1 µM
# [27] = second compound 10 µM, first compound 0.316 µM
# [28] = second compound 10 µM, first compound 1 µM
# [29] = second compound 10 µM, first compound 3.16 µM
# [30] = second compound 10 µM, first compound 10 µM
# [31] = second compound 0.1 µM, first compound 0.000316 µM
# [32] = second compound 0.1 µM, first compound 0.001 µM
# [33] = second compound 0.1 µM, first compound 0.00316 µM
# [34] = second compound 0.1 µM, first compound 0.01 µM
# [35] = second compound 0.316 µM, first compound 0.000316 µM
# [36] = second compound 0.316 µM, first compound 0.001 µM
# [37] = second compound 0.316 µM, first compound 0.00316 µM
# [38] = second compound 0.316 µM, first compound 0.01 µM
# [39] = second compound 1 µM, first compound 0.000316 µM
# [40] = second compound 1 µM, first compound 0.001 µM
# [41] = second compound 1 µM, first compound 0.00316 µM
# [42] = second compound 1 µM, first compound 0.01 µM
# [43] = second compound 3.16 µM, first compound 0.000316 µM
# [44] = second compound 3.16 µM, first compound 0.001 µM
# [45] = second compound 3.16 µM, first compound 0.00316 µM
# [46] = second compound 3.16 µM, first compound 0.01 µM
# [47] = second compound 10 µM, first compound 0.000316 µM
# [48] = second compound 10 µM, first compound 0.001 µM
# [49] = second compound 10 µM, first compound 0.00316 µM
# [50] = second compound 10 µM, first compound 0.01 µM
# 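Further: spheroids exposed to compounds for seven days before readout.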
SMILES,IC50 (second compound 0.1 µM) [nM],IC50 (second compound 0.316 µM) [nM],IC50 (second compound 1 µM) [nM],IC50 (second compound 3.16 µM) [nM],IC50 (second compound 10 µM) [nM],"viability, T/C [1] [%]","viability, T/C [2] [%]","viability, T/C [3] [%]","viability, T/C [4] [%]","viability, T/C [7] [%]","viability, T/C [8] [%]","viability, T/C [9] [%]","viability, T/C [10] [%]","viability, T/C [13] [%]","viability, T/C [14] [%]","viability, T/C [15] [%]","viability, T/C [19] [%]","viability, T/C [20] [%]","viability, T/C [25] [%]","viability, T/C [26] [%]",also measured
CC(C)NCC(C(=O)N1CCN(c2ncnc3c2C(C)CC3O)CC1)c1ccc(Cl)cc1 (stereo not given) + COc1cc2nc(C)nc(NC(C)c3cc(N)cc(C(F)(F)F)c3)c2cc1OC1CCOC1,279,270,178,146,< 31.6,98.1,73,49.4,23.1,85.4,77,44.8,18.9,93,66.4,31.4,71.9,58.3,26.9,20.7,"viability, T/C [5]: 10.2%; viability, T/C [6]: 6.37%; viability, T/C [11]: 7.59%; viability, T/C [12]: 6.32%; viability, T/C [16]: 22%; viability, T/C [17]: 6.85%; viability, T/C [18]: 3.87%; outcome [21]: inactive; viability, T/C [22]: 13.9%; viability, T/C [23]: 6.58%; viability, T/C [24]: 5.75%; viability, T/C [27]: 7.61%; viability, T/C [28]: 3.94%; viability, T/C [29]: 1.89%; viability, T/C [30]: 2.67%"
CC(C)n1nc(-c2ccc3oc(N)nc3c2)c2c(N)ncnc21 + COc1cc2nc(C)nc(NC(C)c3cc(N)cc(C(F)(F)F)c3)c2cc1OC1CCOC1,1.14,0.791,0.969,1.27,< 0.316,9.94,7.92,,,8.96,8.23,,,8.55,7.48,,8.73,7.6,4.36,5.51,"viability, T/C [31]: 118%; viability, T/C [32]: 54.2%; viability, T/C [33]: 16.5%; viability, T/C [34]: 10.9%; viability, T/C [35]: 106%; viability, T/C [36]: 35.6%; viability, T/C [37]: 15.3%; viability, T/C [38]: 8.46%; viability, T/C [39]: 102%; viability, T/C [40]: 48.5%; viability, T/C [41]: 16.2%; viability, T/C [42]: 9.11%; viability, T/C [43]: 99.7%; viability, T/C [44]: 58.4%; viability, T/C [45]: 18.1%; viability, T/C [46]: 8.93%; viability, T/C [47]: 34.2%; viability, T/C [48]: 11.4%; viability, T/C [49]: 4.75%; viability, T/C [50]: 5.13%"
CC1(C)CCC(CN2CCN(c3ccc(C(=O)NS(=O)(=O)c4ccc(NCC5CCOCC5)c([N+](=O)[O-])c4)c(Oc4cnc5[nH]ccc5c4)c3)CC2)=C(c2ccc(Cl)cc2)C1 + COc1cc2nc(C)nc(NC(C)c3cc(N)cc(C(F)(F)F)c3)c2cc1OC1CCOC1,1770,1860,1760,1560,< 31.6,104,103,105,85.1,104,97.9,95.3,90.6,102,94.2,95.7,78.9,93.9,35.2,32.9,"viability, T/C [5]: 14%; viability, T/C [6]: 5.48%; viability, T/C [11]: 15.3%; viability, T/C [12]: 4.54%; viability, T/C [16]: 86.1%; viability, T/C [17]: 12.8%; viability, T/C [18]: 3.87%; viability, T/C [21]: 86%; viability, T/C [22]: 75.1%; viability, T/C [23]: 10.2%; viability, T/C [24]: 5.85%; viability, T/C [27]: 32.3%; viability, T/C [28]: 21.9%; viability, T/C [29]: 4.35%; viability, T/C [30]: 2.8%"
CCN1CCN(Cc2ccc(Nc3ncc(F)c(-c4cc(F)c5nc(C)n(C(C)C)c5c4)n3)nc2)CC1 + COc1cc2nc(C)nc(NC(C)c3cc(N)cc(C(F)(F)F)c3)c2cc1OC1CCOC1,< 3.16,5.01,5.63,< 3.16,< 3.16,25.5,20.2,14.2,5.42,16.6,16.1,13.6,4.29,14.2,13.4,10.5,14.5,11.7,4.11,2.43,"viability, T/C [33]: 49.7%; viability, T/C [34]: 25.8%; viability, T/C [37]: 61.8%; viability, T/C [38]: 33%; viability, T/C [41]: 69.3%; viability, T/C [42]: 31.1%; viability, T/C [16]: 4.38%; viability, T/C [45]: 40.8%; viability, T/C [46]: 25%; viability, T/C [21]: 8.46%; viability, T/C [22]: 1.57%; viability, T/C [49]: 11.7%; viability, T/C [50]: 8.02%; viability, T/C [27]: 0.61%; viability, T/C [28]: 0.15%"
CCNC(=O)CC1N=C(c2ccc(Cl)cc2)c2cc(OC)ccc2-n2c(C)nnc21 (stereo not given) + COc1cc2nc(C)nc(NC(C)c3cc(N)cc(C(F)(F)F)c3)c2cc1OC1CCOC1,93,106,99,56.5,< 31.6,80,48,20.6,7.27,105,51.4,21.9,7.39,85.2,49.9,16.4,65.5,34.8,17,10.3,"viability, T/C [5]: 2.39%; viability, T/C [6]: 0.58%; viability, T/C [11]: 2.09%; viability, T/C [12]: 0.7%; viability, T/C [16]: 6.15%; viability, T/C [17]: 1.76%; viability, T/C [18]: 0.68%; viability, T/C [21]: 13.5%; viability, T/C [22]: 5.23%; viability, T/C [23]: 1.41%; viability, T/C [24]: 0.77%; viability, T/C [27]: 6.19%; viability, T/C [28]: 1.96%; viability, T/C [29]: 0.42%; viability, T/C [30]: 0.33%"
Cn1ncnc1[C@H]1c2n[nH]c(=O)c3cc(F)cc(c23)N[C@@H]1c1ccc(F)cc1 + COc1cc2nc(C)nc(NC(C)c3cc(N)cc(C(F)(F)F)c3)c2cc1OC1CCOC1,> 100,> 100,> 100,> 100,< 0.316,91.6,82.4,,,88.3,81.1,,,83.4,77.7,,74.1,78.1,31,24.3,"viability, T/C [31]: 103%; viability, T/C [32]: 99.9%; viability, T/C [33]: 100%; viability, T/C [34]: 95.8%; viability, T/C [35]: 97%; viability, T/C [36]: 92.7%; viability, T/C [37]: 97.2%; viability, T/C [38]: 89.5%; viability, T/C [39]: 97.3%; viability, T/C [40]: 97%; viability, T/C [41]: 93.9%; viability, T/C [42]: 87.5%; viability, T/C [43]: 92.5%; viability, T/C [44]: 88.6%; viability, T/C [45]: 86.3%; viability, T/C [46]: 85.2%; viability, T/C [47]: 36.2%; viability, T/C [48]: 20.6%; viability, T/C [49]: 23%; viability, T/C [50]: 23.2%"
